Results on one compound are retold here after BindingDB's records for patent US20250179023 (Abbisko Therapeutics, 2025).

In this assay the target is Programmed cell death 1 ligand/protein 1 (Homo sapiens, UniProt Q9NZQ7). Kind of assay: PD1-PDL1 HTRF Binding Activity Test. As for the experimental part: The effect of compounds of the examples of the present invention on the PD-1/PD-L1 interaction was determined by the PD-1/PD-L1 binding assay kit from Cisbio (#64ICP01PEG or 64ICP01PEH).
Sequence of Programmed cell death 1 ligand/protein 1 (Q9NZQ7 whole entry): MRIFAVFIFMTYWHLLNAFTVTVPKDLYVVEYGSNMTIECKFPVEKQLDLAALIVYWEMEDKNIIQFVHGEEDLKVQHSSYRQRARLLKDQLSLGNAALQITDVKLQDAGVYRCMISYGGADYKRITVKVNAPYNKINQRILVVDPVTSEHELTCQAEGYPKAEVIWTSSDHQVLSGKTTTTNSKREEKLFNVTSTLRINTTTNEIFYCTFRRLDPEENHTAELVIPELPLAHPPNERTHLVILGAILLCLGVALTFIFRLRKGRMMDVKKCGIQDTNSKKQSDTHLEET
Sequence of Programmed cell death 1 ligand/protein 1 (Q15116 whole entry, further chain): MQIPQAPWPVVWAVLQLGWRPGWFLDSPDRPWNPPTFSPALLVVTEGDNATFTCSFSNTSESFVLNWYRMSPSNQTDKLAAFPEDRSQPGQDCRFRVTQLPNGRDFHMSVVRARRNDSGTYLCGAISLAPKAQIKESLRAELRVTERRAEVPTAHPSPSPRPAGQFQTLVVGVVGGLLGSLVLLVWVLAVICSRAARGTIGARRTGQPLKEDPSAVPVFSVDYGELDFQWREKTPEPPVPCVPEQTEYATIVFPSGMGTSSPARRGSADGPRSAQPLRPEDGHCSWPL

With `Cc1c(NC(=O)c2cc(C3CC3)c(CNCCC34CCC(C(=O)O)(CC3)C4)cn2)cccc1-c1cccc(NC(=O)c2cc(C3CC3)c(CNC34CCC(C(=O)O)(CC3)C4)cn2)c1C` [US20250179023, Example 5], the IC50 – broadly, the point on the concentration scale where inhibition reaches its midpoint – stood at 4.19 nM.
